US20050260711A1, “Modulating pH-sensitive binding using non-natural amino acids” (priority 2004, published 2005)

How the values were obtained:
E. coli = assay: growth and Nal incorporation of E. coli expression host with added AZL; format: cell-based; details: AZL added to the medium
Method: Incomplete occupancy of the UUG codon by Nal is due at least in part to competition with leucine-charged E. coli tRNA^LeuS. In an attempt to reduce competition by E. coli tRNA^LeuS, use of a mutant E. coli strain lacking tRNA^LeuCAA and addition of an E. coli leucyl-tRNA synthetase (LeuRS) inhibitor were tested. A Phe/Leu double auxotrophic strain derived from the tRNA^LeuCAA-deficient strain XA106 (CGSC at Yale) was tested for incorporation of Nal at the UUG codon.
Peptide 5UUG/UUG (residues 26-35, […], SEQ ID NO: 8) contains two Leu residues encoded as UUG. Upon addition of Nal, the masses of these fragments shift in accord with the mass difference between Nal and Leu. Only Nal (a), Nal and 1 mM AZL (b) were supplemented into the media.

E. coli LeuRS = E. coli LeuRS (Escherichia coli, UniProt P07813); details: in vitro; cited from earlier work
Sequence of E. coli LeuRS (P07813 whole entry): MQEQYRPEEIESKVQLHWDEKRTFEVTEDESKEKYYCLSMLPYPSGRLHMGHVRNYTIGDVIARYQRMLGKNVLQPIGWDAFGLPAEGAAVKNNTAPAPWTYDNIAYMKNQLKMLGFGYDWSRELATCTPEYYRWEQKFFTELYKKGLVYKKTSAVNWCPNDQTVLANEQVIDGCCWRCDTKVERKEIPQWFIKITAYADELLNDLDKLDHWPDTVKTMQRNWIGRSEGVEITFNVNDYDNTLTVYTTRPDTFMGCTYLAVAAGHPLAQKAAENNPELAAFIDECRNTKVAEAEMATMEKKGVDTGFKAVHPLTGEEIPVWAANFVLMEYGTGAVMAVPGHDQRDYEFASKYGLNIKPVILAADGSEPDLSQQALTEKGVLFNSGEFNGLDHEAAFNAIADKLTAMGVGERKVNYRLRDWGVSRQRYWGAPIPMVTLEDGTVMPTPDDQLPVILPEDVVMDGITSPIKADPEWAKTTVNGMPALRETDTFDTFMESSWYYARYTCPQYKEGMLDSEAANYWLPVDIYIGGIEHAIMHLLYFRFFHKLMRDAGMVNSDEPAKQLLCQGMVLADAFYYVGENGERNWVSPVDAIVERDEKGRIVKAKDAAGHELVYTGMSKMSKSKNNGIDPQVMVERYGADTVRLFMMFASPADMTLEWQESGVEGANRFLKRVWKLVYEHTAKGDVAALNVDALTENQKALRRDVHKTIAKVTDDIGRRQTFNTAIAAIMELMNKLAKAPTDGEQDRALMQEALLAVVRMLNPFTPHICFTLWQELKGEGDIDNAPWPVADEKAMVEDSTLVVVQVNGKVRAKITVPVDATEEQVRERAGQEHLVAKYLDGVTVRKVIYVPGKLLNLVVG

[1] = cited from earlier work; for pKa (second of two pKa's): higher of the two pKa's of the side-chain moiety; for pKa (first of two pKa's): lower of the two pKa's of the side-chain moiety
[2] = molecular target: mu-yPheRS (modified yeast PheRS, Thr415Gly) (Saccharomyces cerevisiae, UniProt P15625, T415G); details: Nal versus Phe
Sequence of mu-yPheRS (modified yeast PheRS, Thr415Gly) (P15625 whole entry T415G): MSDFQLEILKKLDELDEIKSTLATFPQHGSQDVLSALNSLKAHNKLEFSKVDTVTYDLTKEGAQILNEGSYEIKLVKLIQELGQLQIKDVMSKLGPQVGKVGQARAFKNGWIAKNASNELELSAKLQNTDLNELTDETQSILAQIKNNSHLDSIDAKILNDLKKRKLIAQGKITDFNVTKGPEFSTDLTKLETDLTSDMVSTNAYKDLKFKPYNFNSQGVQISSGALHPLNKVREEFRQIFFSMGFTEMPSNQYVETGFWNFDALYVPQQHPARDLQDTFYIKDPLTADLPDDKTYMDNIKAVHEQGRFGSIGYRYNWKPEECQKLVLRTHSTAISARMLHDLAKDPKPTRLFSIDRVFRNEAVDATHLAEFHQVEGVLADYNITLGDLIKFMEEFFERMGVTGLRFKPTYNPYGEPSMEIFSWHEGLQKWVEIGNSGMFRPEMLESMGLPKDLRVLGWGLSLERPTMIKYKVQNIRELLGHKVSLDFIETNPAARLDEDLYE
Sequence of mu-yPheRS (modified yeast PheRS, Thr415Gly) (P15624 whole entry, further chain): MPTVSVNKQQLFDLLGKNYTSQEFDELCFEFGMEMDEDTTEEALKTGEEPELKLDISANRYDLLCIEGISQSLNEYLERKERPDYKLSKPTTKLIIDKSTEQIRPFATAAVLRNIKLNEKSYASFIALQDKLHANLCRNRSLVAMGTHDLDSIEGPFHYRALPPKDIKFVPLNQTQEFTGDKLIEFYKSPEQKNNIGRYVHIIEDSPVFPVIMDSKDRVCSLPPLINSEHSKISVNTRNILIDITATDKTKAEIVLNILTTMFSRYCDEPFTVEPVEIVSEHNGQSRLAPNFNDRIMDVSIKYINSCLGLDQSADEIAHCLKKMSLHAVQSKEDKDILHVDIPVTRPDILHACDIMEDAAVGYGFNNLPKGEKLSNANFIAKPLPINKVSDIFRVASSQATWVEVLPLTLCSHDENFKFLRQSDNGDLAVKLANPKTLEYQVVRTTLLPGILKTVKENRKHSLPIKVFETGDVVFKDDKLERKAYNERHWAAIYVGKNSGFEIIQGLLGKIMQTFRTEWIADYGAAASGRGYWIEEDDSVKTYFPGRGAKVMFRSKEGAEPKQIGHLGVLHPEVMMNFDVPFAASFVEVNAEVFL
Method: The modified yeast PheRS (mu-yPheRS) was prepared by introduction of a Thr415Gly mutation in the α-subunit of the synthetase (Datta et al., J. Am. Chem. Soc. 124: 5652, 2002). The kinetics of activation of Nal and Phe by mu-yPheRS were analyzed in vitro via the pyrophosphate exchange assay.

[3] = molecular target: leucine zipper c-MYC-MAX heterodimer (Homo sapiens, UniProt P01106+P61244); details: histidine at the center of c-MYC-MAX leucine zipper; cited from earlier work
Sequence of leucine zipper c-MYC-MAX heterodimer (P01106 428-449 limits assumed): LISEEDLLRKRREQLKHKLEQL
Sequence of leucine zipper c-MYC-MAX heterodimer (P61244 81-102 limits assumed): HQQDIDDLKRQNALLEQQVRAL

**Q.** Which results are given for `CN(C)CC(N)C(=O)O` (racemic) [AZL, 4-Aza-DL-leucine]?
**A.** growth rate of the host (E. coli): reduced the growth rate; occupancy of the UUG codon by Nal (E. coli; mDHFR expression): enhanced occupancy; inhibition of E. coli LeuRS (E. coli LeuRS): competitive inhibitor

**Q.** What does the source list for `N[C@@H](Cc1c[nH]c(F)n1)C(=O)O` [2-fluoro-histidine]?
**A.** pKa (second of two pKa's) [1]: 11.5; pKa (first of two pKa's) [1]: 4.0

**Q.** Which “kcat/KM relative to that for Phe” value [2] does the source give for `N[C@@H](Cc1ccc2ccccc2c1)C(=O)O` [Nal, L-3-(2-naphthyl)alanine] here?
**A.** The value was 8 fold.

**Q.** What does the source list for `N[C@@H](Cc1c[nH]cn1)C(=O)O` [histidine]?
**A.** histidine pKa, experimental value [3]: 7.19; pKa (second of two pKa's) [1]: 14.52; pKa (first of two pKa's) [1]: 7.05
